Literature values in PMC4306510 (Bioconjugate Chemistry, 2014).

Conditions: in 0.1 M aqueous NaOH

Q: For O=C(O)c1ccc2c(c1)C(=O)OC21c2ccc(O)cc2Oc2cc(O)ccc21 [5-carboxy fluorescein], which “quantum yield of the standard” value is on record?
A: 95%
